The target of assay [1] is T1, wild-type human progesterone receptor (Homo sapiens, UniProt P06401).
T1 construct: expressed in transfected cells; host or cells: COS cells (no endogenous progesterone receptor), pcDNAI/Amp vector
T1 sequence (P06401 1-933): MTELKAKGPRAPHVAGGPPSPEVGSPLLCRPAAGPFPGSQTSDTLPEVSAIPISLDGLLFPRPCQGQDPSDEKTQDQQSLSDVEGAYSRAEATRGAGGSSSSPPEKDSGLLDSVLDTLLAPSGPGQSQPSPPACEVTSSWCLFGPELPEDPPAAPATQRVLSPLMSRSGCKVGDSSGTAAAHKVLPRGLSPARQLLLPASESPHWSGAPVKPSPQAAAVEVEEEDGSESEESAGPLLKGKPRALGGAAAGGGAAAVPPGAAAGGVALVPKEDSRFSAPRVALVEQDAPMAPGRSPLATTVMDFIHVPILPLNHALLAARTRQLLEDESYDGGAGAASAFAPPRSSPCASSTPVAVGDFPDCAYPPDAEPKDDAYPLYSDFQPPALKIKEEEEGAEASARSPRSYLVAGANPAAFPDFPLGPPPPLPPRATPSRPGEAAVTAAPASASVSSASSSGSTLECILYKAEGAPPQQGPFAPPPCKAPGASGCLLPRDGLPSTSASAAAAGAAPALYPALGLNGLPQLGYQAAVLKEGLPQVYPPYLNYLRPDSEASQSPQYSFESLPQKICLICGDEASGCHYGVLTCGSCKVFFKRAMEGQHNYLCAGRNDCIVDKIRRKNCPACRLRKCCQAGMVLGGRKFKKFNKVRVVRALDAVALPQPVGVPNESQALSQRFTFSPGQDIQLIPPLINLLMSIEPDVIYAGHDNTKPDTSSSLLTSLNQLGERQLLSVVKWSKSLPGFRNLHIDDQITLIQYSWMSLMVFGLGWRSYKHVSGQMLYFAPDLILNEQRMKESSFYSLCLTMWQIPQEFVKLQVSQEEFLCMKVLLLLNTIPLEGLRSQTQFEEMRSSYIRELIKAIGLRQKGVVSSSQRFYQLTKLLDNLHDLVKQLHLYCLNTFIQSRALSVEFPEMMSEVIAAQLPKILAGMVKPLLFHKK
Kind of assay: Hormone-binding Whole Cell Assay with Scatchard analysis, COS cells expressing wild-type receptor. The note with it: COS cells infected with 250 ng receptor DNA, 50-6400 pM [3H]R5020 overnight, Scatchard analysis (FIG. 7B), read-out: dissociation constant. On the procedure:
(§1) To determine whether the increase in transcriptional activity found above was due to changes in hormone-binding affinity, hormone binding affinity was measured in a Whole Cell Assay, as described by Bai et al, Mol. Endo., 8(11):1465-1473 (1994), using DNA encoding both the mutant and wild-type progesterone receptor proteins.
(§2) More specifically, COS cells were infected with 250 ng of either mutant or wild-type receptor DNA, as described above, and the infected cells were incubated overnight in DME containing 5.0% (v/v) fetal calf serum and 50-6400 pM of [^3 H]R5020 (DuPont NEN, NET-555) before harvesting. Next, the harvested cells were subjected to ethanol extraction, and bound hormone was measured by CPM counting of the extracts.

The target in assay [2] is T2, mutant human progesterone receptor (valine to leucine at amino acid 660) (Homo sapiens, UniProt P06401, V660L).
T2 construct: expressed in transfected cells; host or cells: COS cells (no endogenous progesterone receptor), pcDNAI/Amp vector
T2 sequence (P06401 1-933 V660L): T1 sequence (P06401 1-933) with V660L
Kind of assay: Hormone-binding Whole Cell Assay with Scatchard analysis, COS cells expressing mutant receptor. The following applies: COS cells infected with 250 ng receptor DNA, 50-6400 pM [3H]R5020 overnight, Scatchard analysis (FIG. 7B), read-out: dissociation constant. The protocol: as §1, §2

Each structure is given as a SMILES string. Where a chain is given by its changes, count along the chain named.

In the case of `CCC(=O)[C@@]1(C)CC[C@H]2[C@@H]3CCC4=CC(=O)CCC4=C3CC[C@@]21C` [R5020], the Kd in assay [1] and in assay [2] was 0.25 nM each time.

Values taken from patent US5645995A, “Methods for diagnosing an increased risk for breast or ovarian cancer” (Baylor College of Medicine, priority 1996, dated 1997).
